From patent publication US7999119B2, “Compounds having CRTH2 antagonist activity” (Oxagen Limited, priority 2006, dated 2011)
Several values for one entry are separate records, joined by “and”; a condition that tells them apart may be missing. Identical values can stand only once. Like-named read-outs stand apart in the source and are kept apart here.

Legend:
[1] = test system: PGD2 induced eosinophil shape change; test: Human whole blood eosinophil shape change assay; type: cell-based; conditions: Homo sapiens, Eosinophil
Method in brief: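 Compound added to human whole blood and incubated 15 min at 37° C., 5% CO2, before cell fixation and red-cell lysis. Leukocytes analysed by FACS, eosinophils gated by autofluorescence, 2000 events per sample, triplicate; read-out is inhibition of PGD2-induced eosinophil shape change.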

[2] = Pharmacokinetics following oral administration in the rat; type: in vivo
Method: Investigation of Pharmacokinetics of Compounds of General Formula (I) Following Oral Administration in the Rat
Rats were weighed on the day of dosing.
The test material was prepared as a 0.3 mg/mL suspension in 1% carboxy-methyl-cellulose (CMC).
Three groups of 3 rats were dosed as follows:
Doses were administered as a single oral dose using a gavage tube at a constant dose volume of 10 mL/kg.
At each sampling time point blood samples (approximately 0.3 mL) was taken from a catheter inserted into a lateral tail vein prior to the start of the experiment. The final blood sample (approximately 2 mL) from each animal was taken by cardiac puncture under isoflurane anaesthesia following which the animal was killed by exsanguination. Blood samples were taken into individual heparinised containers. Blood samples were collected at the following times post-dose:
Following collection, the blood samples were centrifuged (approximately 10,000×g, 2 min at 4° C.) and the plasma stored as one aliquot at approximately −20° C. pending analysis of drug concentrations by LC-MS/MS.
The plasma samples were analysed for test material concentrations at BioDynamics using an LC-MS/MS method developed at BioDynamics.

[3] = test system: DK-PGD2-induced blood eosinophilia; test: Inhibition of DK-PGD2-induced blood eosinophilia in rats; type: in vivo, rat; conditions: female rats, oral dosing 30 min before 10 μg DK-PGD2 intracardiac; ED50 from dose-response curve; the values are: ED50
Method: Evaluation of Compounds of General Formula (I) as Inhibitors of 13,14-dihydro-15-keto prostaglandin D2 (DK-PGD2)-Induced Blood Eosinophilia in Rats
The test compound was dissolved in DMSO and diluted with water to give a final dosing volume of 2 ml/kg.
Female rats (175-250 g; UH colony) were dosed orally with test compound (or vehicle).
30 min after dosing all animals were anaesthetised with isoflurane.
Following induction of anaesthesia, animals receive an intracardiac injection of 10 μg DK-PGD2 in 0.3 ml heparinised (10 U/ml) saline. Control animals received an injection of 0.3 ml heparinised saline.
60 min after the intracardiac injection, animals were injected with an overdose of pentobarbitone sodium and a blood sample was taken (into heparin) by cardiac puncture while the rat was anaesthetised but not dead.
An aliquot of blood (100 μl) was added to Turk's solution and the total leukocyte count determined with a haemocytometer.
A further aliquot of blood (500 μl) was mixed with an equal volume of 4% Dextran (mw 500,000) and the erythrocytes allowed to settle. A cytospin preparation was made from the resulting leukocyte rich fraction.
Cytospin preparations were fixed with methanol (5 min) and stained with May-Grunwald (5 min) and Giemsa (15 min) stains. Finally cytospins were washed in phosphate buffer (pH6.8) and air dried.
Differential leukocyte counts were obtained from the cytospin preparations.
Blood eosinophil numbers were determined from the total leukocyte count and the percentage eosinophils (differential count).
Because it was impractical to generate sufficient data in any given experiment, data were obtained over a number of replicate experiments. Data from these replicate experiments were pooled, to provide at least 5 animals in each group and a dose-response curve fitted following a significance test (Mann Whitney) to determine whether or not DK-PGD2 caused a significant increase in blood eosinophils (GraphPad, Prism). A difference between groups was taken to be significant when P<0.05. ED50 values were calculated from the dose-response curve.

[4] = rat, 3 mg/kg p.o, individual male animals, 3 mg/kg

IC50 ([1]; 10 nm PGD2-induced eosinophil shape change, human whole blood, read-out: Whole Blood IC50): 8 nM
IC50 ([1]; Table 12 summary of whole blood eosinophil shape change IC50, read-out: IC50 (μmol)): 8 nM
IC50 ([1]; whole blood eosinophil shape change IC50 converted to ng/mL, read-out: IC50): 3 ng/mL
IC50 ([1]; read-out: IC50 in the whole blood eosinophil shape change assay): 8 nM
concentration at 0.25 h ([2]; male, rat, plasma, po, 3 mg/kg, rat, 3 mg/kg oral, 0.25 h, individual male animals, read-out: Concentration in Blood): 91.8 ng/mL
concentration at 0.25 h ([2]; male, rat, plasma, po, 3 mg/kg, rat, 3 mg/kg oral, 0.25 h, mean, read-out: Concentration in Blood, Mean): 87.6 ng/mL
concentration at 0.5 h ([2]; male, rat, plasma, po, 3 mg/kg, rat, 3 mg/kg oral, 0.5 h, individual male animals, read-out: Concentration in Blood): 121 ng/mL
concentration at 0.5 h ([2]; male, rat, plasma, po, 3 mg/kg, rat, 3 mg/kg oral, 0.5 h, mean, read-out: Concentration in Blood, Mean): 140 ng/mL
concentration at 1 h ([2]; male, rat, plasma, po, 3 mg/kg, rat, 3 mg/kg oral, 1 h, individual male animals, read-out: Concentration in Blood): 252 ng/mL
concentration at 1 h ([2]; male, rat, plasma, po, 3 mg/kg, rat, 3 mg/kg oral, 1 h, mean, read-out: Concentration in Blood, Mean): 255 ng/mL
concentration at 2 h ([2]; male, rat, plasma, po, 3 mg/kg, rat, 3 mg/kg oral, 2 h, mean, read-out: Concentration in Blood, Mean): 381 ng/mL
concentration at 4 h ([2]; male, rat, plasma, po, 3 mg/kg, rat, 3 mg/kg oral, 4 h, mean, read-out: Concentration in Blood, Mean): 283 ng/mL
concentration at 6 h ([2]; male, rat, plasma, po, 3 mg/kg, rat, 3 mg/kg oral, 6 h, mean, read-out: Concentration in Blood, Mean): 182 ng/mL
concentration at 8 h ([2]; male, rat, plasma, po, 3 mg/kg, rat, 3 mg/kg oral, 8 h, mean, read-out: Concentration in Blood, Mean): 114 ng/mL
concentration at 12 h ([2]; male, rat, plasma, po, 3 mg/kg, rat, 3 mg/kg oral, 12 h, mean, read-out: Concentration in Blood, Mean): 27.3 ng/mL
concentration at 24 h ([2]; male, rat, plasma, po, 3 mg/kg, rat, 3 mg/kg oral, 24 h, individual male animals, read-out: Concentration in Blood): 0 ng/mL
concentration at 24 h ([2]; male, rat, plasma, po, 3 mg/kg, rat, 3 mg/kg oral, 24 h, mean, read-out: Concentration in Blood, Mean): 0 ng/mL
Tmax ([2]; male, rat, plasma, po, 3 mg/kg, rat, 3 mg/kg p.o, individual male animals, read-out: Tmax): 2 h
half-life ([2]; male, rat, plasma, po, 3 mg/kg, rat, 3 mg/kg p.o, individual male animals, read-out: T½ (converted)): 3.41 h
AUC(0-inf) ([2]; male, rat, plasma, po, 3 mg/kg, rat, 3 mg/kg p.o, mean, summary without unit (Table 12), read-out: AUCinf (mean)): 2200 ng·h/mL
Cmax ([2]; male, rat, plasma, po, 3 mg/kg, rat, 3 mg/kg p.o, mean, summary without unit (Table 12), read-out: Cmax (mean)): 381 ng/mL
AUC(0-inf) ([2]; male, rat, plasma, po, 3 mg/kg, rat, 3 mg/kg p.o, mean, read-out: AUCinf, Mean): 2200 ng·h/mL
Cmax ([2]; male, rat, plasma, po, 3 mg/kg, rat, 3 mg/kg p.o, mean, read-out: Cmax, Mean): 381 ng/mL
Tmax ([2]; male, rat, plasma, po, 3 mg/kg, rat, 3 mg/kg p.o, mean, read-out: Tmax, Mean): 2 h
half-life ([2]; male, rat, plasma, po, 3 mg/kg, rat, 3 mg/kg p.o, mean, read-out: T½, Mean (converted)): 2.4 h
Fold over IC50 at 24 h ([2]; mean blood concentration at 24 h (rat, 3 mg/kg p.o.) divided by whole blood IC50 in ng/ml): 0
Concentration in Blood ([2]; rat, 3 mg/kg oral, 0.25 h, individual male animals, 3 mg/kg): 113.6 ng/mL and 57.3 ng/mL
Concentration in Blood ([2]; rat, 3 mg/kg oral, 0.5 h, individual male animals, 3 mg/kg): 165.7 ng/mL and 132.1 ng/mL
Concentration in Blood ([2]; rat, 3 mg/kg oral, 1 h, individual male animals, 3 mg/kg): 295.1 ng/mL and 217.5 ng/mL
Concentration in Blood ([2]; rat, 3 mg/kg oral, 12 h, individual male animals, 3 mg/kg): 36.5 ng/mL and 31.0 ng/mL and 14.5 ng/mL
Concentration in Blood ([2]; rat, 3 mg/kg oral, 24 h, individual male animals): 0 ng/mL
T½ [2, 4]: 1.80 h and 1.86 h
AUCinf (mean) ([2]; rat, 3 mg/kg p.o, mean, summary without unit (Table 12), 3 mg/kg, in ng·h/mL): 2198
SMILES: Cc1c(Cc2ccc(S(C)(=O)=O)cc2)c2cc(F)ccc2n1CC(=O)O [Compound B, [5-Fluoro-3-(4-methanesulfonyl-benzyl)-2-methyl-indol-1-yl]-acetic acid, reference compound]
Concentration in Blood ([2]; rat, 3 mg/kg oral, 2 h, individual male animals, 3 mg/kg): 349.9 ng/mL and 536.9 ng/mL and 256.2 ng/mL
Concentration in Blood ([2]; rat, 3 mg/kg oral, 4 h, individual male animals, 3 mg/kg): 179.4 ng/mL and 485.2 ng/mL and 184.9 ng/mL
Concentration in Blood ([2]; rat, 3 mg/kg oral, 6 h, individual male animals, 3 mg/kg): 128.3 ng/mL and 292.2 ng/mL and 125.8 ng/mL
Concentration in Blood ([2]; rat, 3 mg/kg oral, 8 h, individual male animals, 3 mg/kg): 72.1 ng/mL and 184.5 ng/mL and 84.7 ng/mL
AUCinf [2, 4]: 1831.4 ng·h/mL and 3256.1 ng·h/mL and 1505.1 ng·h/mL
Cmax [2, 4]: 349.9 ng/mL and 536.9 ng/mL and 256.2 ng/mL
Potency in inhibition of DK-PGD2-induced blood eosinophilia [3]: 17 mg/kg
